In patent US12077534B2, “Aza-heterobicyclic inhibitors of MAT2A and methods of use for treating cancer” (Les Laboratoires Servier SAS, priority 2018, dated 2024):
Where two headings read alike, the source gives them in different places.

Legend:
[1] = target: T1, MAT2A homodimer (Homo sapiens, UniProt P31153); assay: MAT2A biochemical assay (phosphate release, PiColorLock Gold); conditions: recombinant MAT2A homodimer, 60 min pre-incubation, 25° C.; read-out: Enzyme Inhibition
T1 construct: inferred from Ni sepharose purification and imidazole elution; made in house; host or cells: SF9 insect cells, recombinant baculovirus (Bac to Bac, pFASTBAC1)
Description: Mat2A protein was expressed by recombinant baculovirus in SF9 infected cells using the Bac to Bac system cloned into the pFASTBAC1 vector (Invitrogen, Carlsbad, CA). Recombinant MAT2A was isolated from the cell lysate of 150 g of infected cells using HP Ni sepharose column chromatography. Recombinant MAT2A homodimer was eluted with 250 and 500 mM imidazole, and fractions containing MAT2A were identified by sodium dodecyl sulfate polyacrylamide gel electrophoresis and pooled.
For determination of the inhibitory potency of compounds against the MAT2A homodimer, protein was diluted to 4 μg/mL in assay buffer (50 mM Tris, pH 8.0, 50 mM KCl, 15 mM MgCl2, 0.3 mM EDTA, 0.005% [w/v] bovine serum albumin [BSA]). Test compound was prepared in 100% dimethyl sulfoxide (DMSO) at 50× the desired final concentration. A 1 μL volume of compound dilution was added to 40 μL of enzyme dilution and the mixture was allowed to equilibrate for 60 minutes at 25° C. The enzymatic assay was initiated by the addition of 10 μL of substrate mix (500 μM ATP, pH 7.0, 400 μM L-methionine in 1× assay buffer), and the mixture was incubated for a further 60 minutes at 25° C. The reaction was halted and the liberated phosphate released by the enzyme in stoichiometric amounts by the production of S-adenosyl methionine (SAM) was measured using the PiColorLock Gold kit (Innova Biosciences, UK). Absolute product amounts were determined by comparison to a standard curve of potassium phosphate buffer, pH 8.0.

[2] = system: MAT2A activity (SAM) in HCT116 cells with deleted MTAP gene; assay: Cellular assay of target engagement (SAM) by LC-MS/MS; assay type: cell-based; conditions: Homo sapiens, read-out: Cell 72 h SAM Inhibition (MTAP −/−)
Description: Measurement of MAT2A activity in cells was made by direct quantitation of the abundance of the product of its enzymatic activity, SAM. Cancer cells were treated with candidate MAT2A inhibitors for a suitable incubation period, and the cells were then lysed using a reagent which quenched any further enzyme activity. Soluble metabolites including SAM were collected and SAM itself was directly measured from the lysate using quantitative LC-MS/MS.
A typical assay was performed using an HCT116 human colon carcinoma cell line which was genetically engineered to delete the MTAP gene (commercially available from Horizon Discovery). This cell line was utilized because it was determined that loss of the MTAP gene predicts sensitivity to MAT2A inhibitors. Cells were plated in 96-well dishes at appropriate cell density. Following 24 hours, cells were then treated with the candidate MAT2A inhibitor. Prior to addition to cells, the compound was first serially diluted in 100% DMSO, typically as a 3-fold serial dilution starting at 500× top dose with 10 dose points including DMSO only control. Compound was then transferred to a working stock plate in cell culture media by adding 5 μL of compound in DMSO to 495 μL of cell culture media. This working stock was then added to cells via a further 5-fold dilution, by adding 25 μL of working stock to 100 μL of cells in culture media. Following compound addition, cells were incubated at 37° C./5% CO2 for 72 hrs.
To quantitate SAM levels following compound treatment, cells were gently washed once in ammonium carbonate buffer (75 mM at pH 7.4), placed on dry ice, and lysed with metabolite extraction buffer (80% cold methanol and 20% water (v/v) with acetic acid at 1M final concentration with 200 ng/mL deuterated d3-SAM as internal control). Following centrifugation at 4° C. at 3,200 rpm for 30 minutes, the supernatant was collected and stored at −80° C. until analysis by Liquid Chromatography with tandem Mass Spectrometry (LC-MS/MS). LC-MS/MS analysis was performed using an API6500 Mass Spectrometer (Sciex, Framingham, MA, USA) operating in positive ion spray mode and equipped with a Waters UPLC Acquity (Waters, Milford, MA, USA) BEH Amide column. Multiple Reaction Monitoring data was acquired for SAM and the d3-SAM standard, using a mass transition pair at m/z 399.2→250.1 and 402.2→250.1, respectively. In a typical LC-MS/MS analysis, the initial flow rate was 0.5 ml/min of 25% mobile phase A (acetonitrile and water at 5:95 (v/v) with 1% formic acid and 10 mM ammonium acetate) and 75% mobile phase B (acetonitrile and water at 95:5 (v/v) with 1% formic acid and 10 mM ammonium acetate), 0.2-0.5 minutes with 75%-35% mobile phase B, 25%-65% mobile phase A, at 0.5 min 65% mobile phase A and 35% mobile phase B, 1.0-1.1 minutes with 35%-75% mobile phase B, 65%-25% mobile phase A, at 1.1 min 25% mobile phase A and 75% mobile phase B with a total run time of 1.5 minutes.

[3] = system: HCT116 MTAP−/−; assay: Inhibition of cellular proliferation (Cell Titer Glo), HCT116 MTAP-/-; assay type: cell-based; conditions: Homo sapiens, HCT-116, 96 h, 4 days, read-out: 4 Day Relative Growth Inhibition (MTAP −/−)
Description: (§1) Test compound impact on cancer cell growth was assessed by treating cancer cells with compound for 4 days and then measuring proliferation using an ATP-based cell proliferation readout (Cell Titer Glo, Promega Corporation).
(§2) In a typical assay an isogenic pair of HCT116 human colon carcinoma cell lines which vary only in MTAP deletion status (HCT116 MTAP+/+ and HCT116 MTAP−/−) were plated in 96-well dishes at appropriate cell density. Following 24 hours, cells were then treated with the candidate MAT2A inhibitor. Prior to addition to cells, the compound was first serially diluted in 100% DMSO, typically as a 3-fold serial dilution starting at 500× top dose with 10 dose points including DMSO only control. Compound was then transferred to a working stock plate in cell culture media by adding 5 μL of compound in DMSO to 495 μL of cell culture media. This working stock was then added to cells via a further 5-fold dilution, by adding 25 μL of working stock to 100 μL of cells in culture media. Following compound addition, cells were incubated at 37° C./5% CO2 for 4 days.
(§3) To measure inhibition of cellular proliferation, cells were allowed to equilibrate to room temperature for 30 minutes, and were then treated with 125 μL of Cell Titer Glo reagent. The plate was then covered with aluminum foil and shaken for 15 minutes to ensure complete mixing and full cell lysis. Luminescent signal was then measured using a plate-based luminometer Veritas version 1.9.2 using ATP standard curve to confirm assay reproducibility from run to run. This luminescence measure was converted to a proliferation index by subtracting from each data point the ATP luminescence signal measured from a bank (no cells) well and dividing by the ATP luminescence signal measured in 0.2% DMSO control well adjusted for signal in blank well. Compound activity was then represented as a percentage change in proliferation relative to a within-plate DMSO control against log 10 of compound concentration in molar (M) units.

[4] = system: HCT116 MTAP+/+; assay: Inhibition of cellular proliferation (Cell Titer Glo), HCT116 MTAP+/+; assay type: cell-based; conditions: Homo sapiens, HCT-116, 96 h, 4 days, read-out: 4 Day Relative Growth Inhibition (MTAP +/+)
Description: as §1, §2, §3

[5] = HCT-116, HCT116 MTAP −/−, 72 hrs

T1 sequence (P31153 whole entry): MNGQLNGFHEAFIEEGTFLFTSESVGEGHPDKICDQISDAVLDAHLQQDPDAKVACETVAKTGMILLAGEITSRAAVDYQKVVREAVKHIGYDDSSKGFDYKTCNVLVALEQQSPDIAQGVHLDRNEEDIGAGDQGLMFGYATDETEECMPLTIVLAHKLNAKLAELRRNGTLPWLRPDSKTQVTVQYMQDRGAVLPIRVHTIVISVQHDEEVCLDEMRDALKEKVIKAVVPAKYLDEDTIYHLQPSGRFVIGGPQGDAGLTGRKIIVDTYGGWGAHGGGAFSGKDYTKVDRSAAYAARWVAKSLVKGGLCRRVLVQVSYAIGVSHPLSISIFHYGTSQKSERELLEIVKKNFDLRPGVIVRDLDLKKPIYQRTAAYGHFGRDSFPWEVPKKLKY

Row | Structure (SMILES) | IC50 [1] [nM] | IC50 [2, 5] [nM] | IC50 [3] [nM] | IC50 [4] [nM] | IC50 ([2]; HCT-116, 72 h) [nM]
1 | Cn1cc2cc(-n3nc4ccc(OCC(F)F)nc4c(-c4ccc(OC(F)F)cc4)c3=O)ccc2n1 [Example 125, 6-(2,2-difluoroethoxy)-4-(4-(difluoromethoxy)phenyl)-2-(2-methyl-2H-indazol-5-yl)pyrido[3,2-c]pyridazin-3(2H)-one] | < 100 | < 100 | < 100 | 100 to 1000 | –
2 | Cn1cc2cc(-n3nc4ccc(OCC(F)F)nc4c(-c4ccc(OC(F)F)nc4)c3=O)ccc2n1 [Example 126] | < 100 | < 100 | < 100 | ≥ 1000 | –
3 | CCOc1ccc2nn(-c3ccc4nn(C)cc4c3)c(=O)c(-c3ccc(C(F)(F)F)nc3)c2n1 [Example 127] | < 100 | < 100 | < 100 | ≥ 1000 | –
4 | Cn1cc2cc(-n3nc4ccc(OCC(F)F)nc4c(-c4ccc(OC(F)(F)F)nc4)c3=O)ccc2n1 [Example 128] | < 100 | < 100 | < 100 | ≥ 1000 | –
5 | Cn1cc2cc(-n3nc4ccc(OCCF)nc4c(-c4ccc(OC(F)F)cc4)c3=O)ccc2n1 [Example 129] | < 100 | < 100 | < 100 | ≥ 1000 | –
6 | COc1ccc(-c2c(=O)n(-c3ccc4nn(C)cc4c3)nc3ccc(OCC(F)F)nc23)cn1 [Example 130] | < 100 | < 100 | < 100 | 100 to 1000 | –
7 | Cn1cc2cc(-n3nc4ccc(OCC5CCC5)nc4c(-c4ccc(OC(F)F)cc4)c3=O)ccc2n1 [Example 131] | < 100 | 100 to 1000 | ≥ 1000 | ≥ 1000 | –
8 | Cn1cc2cc(-n3nc4ccc(OCCC(F)(F)F)nc4c(-c4ccc(OC(F)F)cc4)c3=O)ccc2n1 [Example 132] | < 100 | 100 to 1000 | 100 to 1000 | ≥ 1000 | –
9 | Cn1cc2cc(-n3nc4ccc(OCC(F)F)nc4c(-c4ccccc4)c3=O)ccc2n1 [Example 133] | < 100 | < 100 | 100 to 1000 | ≥ 1000 | –
10 | Cn1cc2cc(-n3nc4ccc(OCC(F)F)nc4c(-c4ccncc4)c3=O)ccc2n1 [Example 134] | < 100 | 100 to 1000 | ≥ 1000 | ≥ 1000 | –
11 | CCOc1ccc2nn(-c3ccc(OC)cc3)c(=O)c(-c3ccc(OC(F)F)cc3)c2n1 [Example 135] | < 100 | < 100 | 100 to 1000 | ≥ 1000 | –
12 | CCOc1ccc2nn(-c3ccc(OC)cc3)c(=O)c(-c3ccc(OC(F)(F)F)nc3)c2n1 [Example 136] | < 100 | 100 to 1000 | 100 to 1000 | ≥ 1000 | –
13 | Cn1cc2cc(-n3nc4ccc(OCC5CC5)nc4c(-c4ccc(OC(F)F)cc4)c3=O)ccc2n1 [Example 137] | < 100 | < 100 | < 100 | ≥ 1000 | –
14 | CC(C)Oc1ccc2nn(-c3ccc4nn(C)cc4c3)c(=O)c(-c3ccc(OC(F)F)cc3)c2n1 [Example 138] | < 100 | < 100 | < 100 | ≥ 1000 | –
15 | [2H]C([2H])([2H])Oc1ccc(-c2c(=O)n(-c3ccc4nn(C)cc4c3)nc3ccc(OCC(F)F)nc23)cn1 [Example 139] | < 100 | < 100 | < 100 | 100 to 1000 | –
16 | Cn1cc2cc(-n3nc4ccc(OCC(F)F)nc4c(-c4cccc(Cl)c4)c3=O)ccc2n1 [Example 140] | < 100 | 100 to 1000 | < 100 | ≥ 1000 | –
17 | CC(C)COc1ccc2nn(-c3ccc4nn(C)cc4c3)c(=O)c(-c3ccc(OC(F)F)cc3)c2n1 [Example 141] | < 100 | < 100 | 100 to 1000 | ≥ 1000 | –
18 | Cn1cc2cc(-n3nc4c(COC5CCCCO5)cc(OCC(F)F)nc4c(-c4ccc(OC(F)F)cc4)c3=O)ccc2n1 (centres unmarked) [Example 142, 6-(2,2-difluoroethoxy)-4-(4-(difluoromethoxy)phenyl)-2-(2-methyl-2H-indazol-5-yl)-8-(((tetrahydro-2H-pyran-2-yl)oxy)methyl)pyrido[3,2-c]pyridazin-3(2H)-one] | < 100 | – | 100 to 1000 | ≥ 1000 | 100 to 1000
19 | O=c1c(-c2ccc(Cl)cc2)c2nc(OCC(F)F)ccc2nn1-c1ccc2ncsc2c1 [Example 143] | < 100 | < 100 | < 100 | ≥ 1000 | –
20 | COc1ccc(-c2c(=O)n(-c3ccc4ncsc4c3)nc3ccc(OCC(F)F)nc23)cc1 [Example 144] | < 100 | < 100 | < 100 | ≥ 1000 | –
21 | CCOc1ccc2nn(-c3ccc4ncsc4c3)c(=O)c(-c3ccc(OC(F)F)cc3)c2n1 [Example 145] | < 100 | < 100 | < 100 | ≥ 1000 | –
22 | CC(C)Oc1ccc2nn(-c3ccc4ncsc4c3)c(=O)c(-c3ccc(OC(F)F)cc3)c2n1 [Example 146] | < 100 | < 100 | < 100 | ≥ 1000 | –
23 | O=c1c(-c2ccc(C3CC3)nc2)c2nc(OCC(F)F)ccc2nn1-c1ccc2ncsc2c1 [Example 147] | < 100 | 100 to 1000 | 100 to 1000 | ≥ 1000 | –
